The numbers were not newly measured in the PKSmart pharmacokinetics tables (Seal et al. 2025), which cites them from elsewhere.

The data set is described as follows: Lombardo, Berellini, Obach 2018, Drug Metab Dispos 46:1466, doi 10.1124/dmd.118.082966. Particulars: human; for MRT / Vd / clearance / half-life: in vivo, iv; for fraction unbound: plasma.

Usually MRT stands for the average time that molecules of a dose stay in the body. As a reminder, the Vd is a proportionality between amount in the body and measured concentration, not a real space. As usually defined, the clearance is a measure of how efficiently the substance is removed, as volume per time. The half-life is the time needed for the level to fall by half in the phase considered. For the molecule `NC(=S)NN=Cc1ncccc1N`, the MRT was 2.6 h, the distribution volume (Vd) is 0.41 L/kg, the clearance is 2.65 mL/min/kg and the half-life was 1.9 h.
Broadly, the fraction unbound is the share of the substance not bound to proteins or other matrix. With `CS(=O)(=O)c1ccc(C2=C(c3ccccc3)C(=O)OC2)cc1`, the mean residence time MRT was 10.8 h, the distribution volume (Vd) is 1.3 L/kg, the clearance was 2 mL/min/kg and the half-life was 7.5 h. In addition, the fraction unbound is 0.13.
Regarding `N#Cc1ccc2c(c1)CN(S(=O)(=O)c1cccs1)[C@H](Cc1ccccc1)CN2Cc1cnc[nH]1`, the MRT was 1.4 h, the Vd was 0.84 L/kg, the clearance is 9.6 mL/min/kg and the half-life is 1.6 h. In addition, the fraction unbound is 0.01.
Consider `CC1(C)CC[C@]2(C(=O)O)CC[C@]3(COC(=O)C=Cc4cc(O)ccc4NC(=O)/C=C/C(=O)O)C(=CC[C@@H]4[C@@]5(C)CCC(=O)C(C)(C)[C@@H]5CC[C@]43C)[C@@H]2C1`, for which the mean residence time MRT is 3.18 h, the Vd was 1.45 L/kg and the clearance is 7.6 mL/min/kg.
With `CC[C@H](C)[C@@H]([C@@H](CC(=O)N1CCC[C@H]1[C@H](OC)C(C)C(=O)NCCc1ccccc1)OC)N(C)C(=O)C(NC(=O)C(C(C)C)N(C)C)C(C)C` (stereo not given in full), the MRT is 4.6 h, the Vd is 0.42 L/kg, the clearance is 1.6 mL/min/kg and the half-life was 5.67 h.
`CN(C(=O)CO)c1c(I)c(C(=O)NC[C@H](O)CO)c(I)c(C(=O)NC[C@H](O)CO)c1I`: the MRT was 2.7 h, the Vd was 0.23 L/kg, the clearance is 1.4 mL/min/kg and the half-life is 2.3 h. In addition, the unbound share (fraction unbound) was 1.
In the case of `OCCN1C[C@H](O)[C@@H](O)[C@H](O)[C@H]1CO`, the MRT is 2.7 h, the distribution volume (Vd) is 0.28 L/kg, the clearance was 1.7 mL/min/kg and the half-life is 2.3 h.
In the case of `Cc1c(C)c2ccc(OCCCN3CCN(Cc4ccc(Cl)cc4)CC3)cc2oc1=O`, the mean residence time (MRT) is 16.5 h, the Vd was 1.3 L/kg, the clearance was 1.3 mL/min/kg and the half-life was 19.2 h. Further, the free fraction (fraction unbound) was 0.05.
In the case of `OC[C@H]1O[C@@H]2O[C@H]3[C@H](O)[C@@H](O)[C@@H](O[C@H]4[C@H](O)[C@@H](O)[C@@H](O[C@H]5[C@H](O)[C@@H](O)[C@@H](O[C@H]6[C@H](O)[C@@H](O)[C@@H](O[C@H]7[C@H](O)[C@@H](O)[C@@H](O[C@H]8[C@H](O)[C@@H](O)[C@@H](O[C@H]1[C@H](O)[C@H]2O)O[C@@H]8CO)O[C@@H]7CO)O[C@@H]6CO)O[C@@H]5CO)O[C@@H]4CO)O[C@@H]3CO`, the MRT was 1.9 h, the Vd is 0.21 L/kg, the clearance was 1.8 mL/min/kg and the half-life was 1.6 h.
In the case of `Cc1nc(NNC(=O)C(CC2CCCC2)CN(O)C=O)c(F)c(N2CCN3CCOCC3C2)n1` (stereo not given), the MRT was 2.2 h, the distribution volume (Vd) was 0.75 L/kg, the clearance was 5.6 mL/min/kg and the half-life was 4.2 h.
As for `COc1ccccc1OC[C@H](O)CN1CCN(CC(=O)Nc2c(C)cccc2C)CC1`, the MRT was 2.1 h, the Vd was 1.2 L/kg, the clearance is 9.5 mL/min/kg and the half-life is 1.8 h. The free fraction (fraction unbound) is 0.38.
Turning to `O=C(O[C@H]1CN2CCC1CC2)N1CCc2ccccc2[C@@H]1c1ccccc1`, the MRT was 65 h, the Vd is 8.2 L/kg and the half-life is 52 h.
Turning to `COC1=C(C(=O)O)N2C(=O)C(NC(=O)C(N)C3=CCC=CC3)[C@H]2SC1` (stereo not given in full), the MRT is 0.59 h, the volume of distribution (Vd) is 0.17 L/kg, the clearance was 4.78 mL/min/kg and the half-life was 0.74 h. In addition, the fraction unbound is 0.1.
As to `CN1[C@@H]2C[C@@H](OC(=O)C(CO)c3ccccc3)C[C@H]1[C@@H]1O[C@@H]12` (stereo not given in full), the mean residence time MRT was 3.2 h.
On to `CC1(C)O[C@@H]2[C@@H](CO[C@@]3(COS(N)(=O)=O)OC(C)(C)O[C@@H]23)O1`, for which the mean residence time (MRT) was 48.7 h, the Vd was 0.8 L/kg, the clearance was 0.27 mL/min/kg and the half-life is 34.8 h. Further, the free fraction (fraction unbound) is 0.72.
As to `CC(C)(S)C(N)C(=O)O` (stereo not given), the MRT was 1.97 h, the volume of distribution (Vd) was 1.26 L/kg, the clearance was 10.7 mL/min/kg and the half-life is 3.04 h. Further, the fraction unbound is 0.12.
As for `C[C@H]1CCc2c(N3CCC(O)CC3)c(F)cc3c(=O)c(C(=O)O)cn1c23`, the MRT is 7.87 h, the Vd was 0.25 L/kg, the clearance is 0.54 mL/min/kg and the half-life is 6.04 h.
Take `C[C@]12CC[C@H]3[C@@H](CC=C4CC(=O)CC[C@@]43C)[C@@H]1CC[C@@H]2O`: the mean residence time MRT was 0.25 h, the Vd is 0.35 L/kg, the clearance is 24.5 mL/min/kg and the half-life is 0.17 h. Also, the fraction unbound is 0.057.
For `CC(=O)OCC1=C(C(=O)O)N2C(=O)C(NC(=O)Cc3cccs3)[C@H]2SC1` (stereo not given in full), the MRT was 0.65 h, the distribution volume (Vd) is 0.07 L/kg, the clearance was 1.8 mL/min/kg and the half-life was 0.95 h. Moreover, the fraction unbound is 0.22.
`Nc1nc(C(=NO)C(=O)NC2C(=O)N3C(C(=O)O)=C(C=C4CCN([C@@H]5CCNC5)C4=O)CS[C@H]23)ns1` (stereo not given in full): the mean residence time (MRT) was 3 h, the Vd was 0.27 L/kg, the clearance was 1.5 mL/min/kg and the half-life was 3.3 h. Also, the free fraction (fraction unbound) was 0.62.
Take `C[C@]12C[C@]3(O)O[C@@H](O1)[C@@]1(COC(=O)c4ccccc4)[C@@H]3C[C@]12O[C@@H]1O[C@H](CO)[C@@H](O)[C@H](O)[C@H]1O`: the fraction unbound is 0.77.
On to `O=C(O)Cn1c(=O)c(=O)[nH]c2cc([N+](=O)[O-])c(-n3ccnc3)cc21`, for which the MRT is 0.6 h, the Vd was 0.19 L/kg, the clearance was 5.3 mL/min/kg and the half-life was 0.78 h.
As for `C[C@]12CC=C3C4=C(CCC3[C@@H]1CC[C@@]2(O)CC#N)CC(=O)CC4` (stereo not given in full), the MRT is 8.52 h, the Vd is 0.6 L/kg, the clearance is 1.29 mL/min/kg and the half-life is 11 h. Besides, the fraction unbound was 0.1.
In the case of `NNC(=O)c1ccncc1`, the MRT is 1.8 h, the Vd was 0.82 L/kg, the clearance is 7.4 mL/min/kg and the fraction unbound was 1.
On to `CC(NC(CCc1ccccc1)C(=O)O)C(=O)N1CCCC1C(=O)O` (stereo not given), for which the mean residence time MRT was 4 h, the Vd was 0.38 L/kg, the clearance is 1.6 mL/min/kg and the half-life is 39 h.
Consider `O=C(NC1CCN(CCc2c[nH]c3ccccc23)CC1)c1ccccc1`, for which the MRT was 4.1 h, the Vd was 4.9 L/kg, the clearance is 20 mL/min/kg and the half-life is 4.3 h. Also, the unbound share (fraction unbound) is 0.15.
On to `CC(=O)Oc1ccc2c3c1O[C@H]1[C@@H](OC(C)=O)C=C[C@H]4[C@@H](C2)N(C)CC[C@@]341`, for which the MRT is 0.1 h, the distribution volume (Vd) is 1.31 L/kg, the clearance is 212 mL/min/kg and the half-life is 0.062 h.
On to `Nc1cc(N2CCCCC2)nc(N)[n+]1[O-]`, for which the MRT is 1.3 h, the Vd was 0.9 L/kg, the clearance was 11.5 mL/min/kg and the half-life was 1.5 h.
Regarding `NCC(=O)CCC(=O)O`, the mean residence time (MRT) is 1.06 h, the volume of distribution (Vd) is 0.12 L/kg, the clearance was 1.88 mL/min/kg and the half-life was 0.83 h. Besides, the unbound share (fraction unbound) was 0.88.
For `COc1ccc(CNC[C@@H](O)COc2ccc3[nH]c(=O)ccc3c2)cc1OC`, the mean residence time (MRT) was 3.2 h, the Vd is 1.6 L/kg, the clearance was 8.9 mL/min/kg and the half-life was 3.3 h.
With `N#CN`, the MRT is 0.8 h, the distribution volume (Vd) is 0.78 L/kg, the clearance is 17 mL/min/kg and the half-life was 0.43 h.
As for `COc1ccc(/C=C\c2cc(OC)c(OC)c(OC)c2)cc1OP(=O)(O)O`, the MRT is 0.3 h, the distribution volume (Vd) is 0.11 L/kg, the clearance was 5.86 mL/min/kg and the half-life was 0.47 h. For the same molecule, the fraction unbound is 0.23.
